Assay results published in PMC7954447 (Science Advances, 2021).
pIC50: −log10 of the molar value.

Target: human α7 nicotinic ACh receptor (nAChR) (Homo sapiens, UniProt P36544)
Format: cell-based

Chain of human α7 nicotinic ACh receptor (nAChR) (P36544 23-502): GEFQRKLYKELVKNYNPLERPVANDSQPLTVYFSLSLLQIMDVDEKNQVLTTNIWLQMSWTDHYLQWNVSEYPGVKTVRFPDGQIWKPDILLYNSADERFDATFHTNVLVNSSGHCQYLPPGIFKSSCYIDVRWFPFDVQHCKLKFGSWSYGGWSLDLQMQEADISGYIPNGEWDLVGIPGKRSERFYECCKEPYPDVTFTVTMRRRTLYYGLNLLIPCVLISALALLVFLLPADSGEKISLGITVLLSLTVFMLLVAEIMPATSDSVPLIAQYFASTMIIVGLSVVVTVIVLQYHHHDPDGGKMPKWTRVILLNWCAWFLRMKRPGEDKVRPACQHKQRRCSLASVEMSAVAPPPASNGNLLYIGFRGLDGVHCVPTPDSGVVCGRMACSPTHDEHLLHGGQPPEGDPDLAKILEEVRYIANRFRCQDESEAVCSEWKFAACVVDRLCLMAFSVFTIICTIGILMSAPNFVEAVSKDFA

**Q.** How did the pIC50 turn out when Conazolium A [compound 1] was run?
**A.** 4.61
